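A five-concentration, 48-hour dose response in 96-well plates underlies each endpoint, interpolated linearly between surrounding concentrations. GI50 is the concentration that inhibits growth by half.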 The source made the active and inactive calls. Cut-off read from the data, not from the text of the source: active = GI50 up to about 1.1 µM and inactive = higher.
Legend:
Assay in all cases: NCI anticancer screen, dose series, 48 h
SNB-75 = test system: SNB-75
IGROV-1 = test system: IGROV-1
OVCAR-4 = test system: OVCAR-4
OVCAR-5 = test system: OVCAR-5
MDA-N = test system: MDA-N
786-0 = test system: 786-0
UACC-62 = test system: UACC-62
MDA-MB-231 = test system: MDA-MB-231
KM-20L2 = test system: KM-20L2
TK-10 = test system: TK-10
LOX IMVI = test system: LOX IMVI
HCT-15 = test system: HCT-15
SW-620 = test system: SW-620
BT-549 = test system: BT-549
KM12 = test system: KM12
T47D = test system: T47D
DU-145 = test system: DU-145
SN12C = test system: SN12C
HT-29 = test system: HT-29
A549 = test system: A549
NCI-H460 = test system: NCI-H460
MOLT-4 = test system: MOLT-4
RXF 631 = test system: RXF 631
Malme-3M = test system: Malme-3M
SK-MEL-2 = test system: SK-MEL-2
SK-OV-3 = test system: SK-OV-3
DMS-273 = test system: DMS-273
HCT-116 = test system: HCT-116
SK-MEL-5 = test system: SK-MEL-5
OVCAR-3 = test system: OVCAR-3
UACC-257 = test system: UACC-257
UO-31 = test system: UO-31
RPMI-8226 = test system: RPMI-8226
A498 = test system: A498
MCF7 = test system: MCF7
EKVX = test system: EKVX
XF498 = test system: XF498
RXF 393 = test system: RXF 393
U-251 = test system: U-251
COLO 205 = test system: COLO 205
CCRF-CEM = test system: CCRF-CEM
M19-MEL = test system: M19-MEL
NCI-H23 = test system: NCI-H23
HOP-18 = test system: HOP-18
HCC 2998 = test system: HCC 2998
CAKI-1 = test system: CAKI-1
OVCAR-8 = test system: OVCAR-8
DMS-114 = test system: DMS-114
SK-MEL-28 = test system: SK-MEL-28
LXFL 529 = test system: LXFL 529
NCI-H522 = test system: NCI-H522
M14 = test system: M14
ACHN = test system: ACHN
SNB-78 = test system: SNB-78
NCI-H226 = test system: NCI-H226
SNB-19 = test system: SNB-19
SF-268 = test system: SF-268
HL-60 = test system: HL-60
PC-3 = test system: PC-3
Hs-578T = test system: Hs-578T
SF-295 = test system: SF-295
HOP-62 = test system: HOP-62
HOP-92 = test system: HOP-92
SF-539 = test system: SF-539
K562 = test system: K562
SR = test system: SR
DLD-1 = test system: DLD-1

Measured: GI50

Cc1c2ccncc2cc2c1sc1ccncc12
1900 nM: HCT-15
active: A549 845 nM | NCI-H460 485 nM | MOLT-4 468 nM | RPMI-8226 993 nM | MCF7 410 nM | ACHN 1060 nM | NCI-H226 684 nM | HL-60 877 nM | SR 325 nM
inactive: SNB-75 3800 nM | IGROV-1 3470 nM | OVCAR-4 5710 nM | OVCAR-5 3180 nM | MDA-N 2670 nM | 786-0 2060 nM | UACC-62 2160 nM | MDA-MB-231 3570 nM | KM-20L2 5500 nM | TK-10 7290 nM | LOX IMVI 1570 nM | SW-620 1450 nM | BT-549 2490 nM | KM12 3550 nM | T47D 2040 nM | DU-145 1970 nM | SN12C 2000 nM | HT-29 2730 nM | RXF 631 2250 nM | Malme-3M 4160 nM | SK-MEL-2 6170 nM | SK-OV-3 2230 nM | DMS-273 2090 nM | HCT-116 1750 nM | SK-MEL-5 1680 nM | OVCAR-3 6560 nM | UACC-257 3850 nM | UO-31 1270 nM | A498 4310 nM | EKVX 3170 nM | XF498 12100 nM | RXF 393 5240 nM | U-251 2220 nM | COLO 205 3240 nM | CCRF-CEM 1210 nM | M19-MEL 3940 nM | NCI-H23 2510 nM | HOP-18 7710 nM | HCC 2998 5520 nM | CAKI-1 2010 nM | OVCAR-8 2610 nM | DMS-114 6210 nM | SK-MEL-28 5820 nM | LXFL 529 6680 nM | NCI-H522 2140 nM | M14 4530 nM | SNB-78 13000 nM | SNB-19 2740 nM | SF-268 3660 nM | PC-3 1860 nM | Hs-578T 2390 nM | SF-295 1960 nM | HOP-62 1740 nM | HOP-92 8220 nM | SF-539 4560 nM | K562 4140 nM | DLD-1 4180 nM

Source: ChEMBL document CHEMBL1201862, “PubChem BioAssay data set” (2004)
